Patent publication US10202604B2, “Methods of using microRNA-141” (Stemirna Therapeutics Co., Ltd., priority 2016, dated 2019)

How the values were obtained:
[1] = system: CD44+ and bulk human prostate cancer (HPCa) cells freshly purified from patient tumors; assay: Clonal and sphere formation assays, primary patient cells; assay type: cell-based
Method: Average % of CD44^+ cells (as determined by flow analysis; n=3-5) is indicated for each cell type (UD, undetectable). […] Purified CD44^+ Du145 cells were transfected with NC or miR-141 oligos (30 nM, 48 h) and then plated for clonal (1D & 1E) and sphere (1F) assays. Bars represent mean±SD. *, P<0.05; **, P<0.01. […] Shown are tumor images, cell numbers injected (100,000 cells per injection for all models), site of injection (s.c, subcutaneously) and days (d) when tumors were harvested. Tumor weight and incidences with corresponding P values are also indicated. ns, not significant. […] For 1st generation (1°) sphere assays, 1,000 cells per well were plated in triplicate for each group in 12-well plate and results scored in 11 days. For 2nd generation (2°), the 1° spheres were harvested, digested with Collagenase and Trypsin into single cells, 1,000 cells/well were plated, and results scored in 10 days. Quantification of the colonies was plotted (1 L; **P<0.01). […]
For clonal assays, cultured prostate cancer cells or human prostate cancer cells freshly purified from patient primary tumors were plated at a clonal density (i.e., 100 cells/well) in a 6-well plate. The number of holoclones (33) was counted several days later. […] Floating spheres that arose in 1-2 weeks were counted. […]

[2] = system: CD44; assay: CD44 mRNA and protein levels in prostate cancer cells; assay type: cell-based, human; settings: bulk Du145 and PC3 cells or CD44+ Du145 cells
Method: FIGS. 3A-3J show partial suppression of epithelial to mesenchymal transition by miR-141 and CD44 as a direct target of miR-141. FIGS. 3A-3B show qPCR analysis of epithelial to mesenchymal transition markers in bulk (FIG. 3A) or CD44^+ (FIG. 3B) Du145 cells transfected with the miR-141 oligos (30 nM; 48 h). Results were presented as the relative expression levels over the cells transfected with the NC oligos. […] GAPDH was used as control and the relative protein levels after normalizing to GAPDH and NC controls were indicated below each lane. […] Shown below is the actual sequence in the region with the mutated miR-141 binding sequence indicated in grey (below). […] Shown are representative images. […] Du145 cells were co-transfected with NC or miR-141 oligos (30 nM) together with pBabe empty vector or pBabe-CD44 vector. After 48 h, cells were harvested for invasion assays. Bars, mean±SD. *, P<0.05; **, P<0.01.
Total RNA was extracted using microRNA isolation kit (Life Technologies) according to the manufacturer's instructions. microRNA qPCRs were performed using TaqMan microRNA assays (Life Technologies). qPCR data for microRNAs were normalized to RNU48 whereas qPCR data for mRNAs were normalized to GAPDH.

[3] = system: CD44hi PC3 cells; assay: Dorsal prostate implantation, tumor growth and lung metastasis; assay type: in vivo, NOD/SCID mice; settings: miR-141 via lentiviral infection; 100,000 cells into dorsal prostate
Method: FACS-purified CD44^hi luciferase/GFP double-tagged PC3 cells were infected with Lenti-141 or Lenti-ctl (MOI 10) and 100,000 cells each were injected into the DP of NOD/SCID mice (n=9). Tumor growth and metastasis were monitored using bioluminescence imaging (IVIS). FIGS. 2A-2B show the representative images and quantification (in total photon flux) of primary tumors before termination of the experiment. FIGS. 2C-2D show the representative images (FIG. 2C) and quantification (FIG. 2D) of lung metastasis with the primary tumors covered. […] CD44^+ Du145 cells were infected with Lenti-ctl or Lenti-141 (MOI 10; 72 h) and cells were then injected into the DP of male NOD/SCID mice. Mice were terminated at day 56 and organs including lung were harvested for analyzing metastasis. Shown were representative IHC images of humanspecific Ki-67 staining. […] LAPC9-GFP cells were infected with TRIPZ-NS or TRIPZ-141 inducible lentivirus (MOI 10, 72 h) and CD44^+ cells were purified out by FACS. 100,000 cells each were injected into the DP of NOD/SCID mice and, from day 16 on, two groups of mice were treated with Dox (200 mg/kg body weight in feed). Tumor volumes were measure twice weekly (FIG. 2F). Mice were terminated at day 40 and endpoint tumors were harvested and weighted (FIG. 2G; incidence indicated in bars). […]

What does the source list for “miR-141: miR-141 mirVana mimics (Life Technologies); microRNA-141 oligonucleotide may have SEQ ID NO: 1; in some experiments over-expressed by lentiviral vectors (UAACACUGUCUGGUAAAGAUGG; listed as RNA, further chemistry not given here) [miR-141 mirVana mimics (Life Technologies); in some experiments over-expressed by lentiviral vectors]”?
clonal growth ([1]; miR-141 overexpression (Lenti-141 MOI 10, 72 h)): inhibited; serial sphere formation ([1]; miR-141 overexpression, CD44+ and bulk HPCa cells, 1st and 2nd generation spheres in Matrigel): inhibited; CD44 mRNA level [2]: significantly reduced; CD44 protein level [2]: significantly reduced; lung metastasis [3]: less; primary tumors (size) [3]: smaller
